21 molecules from patent publication US20150307520A1, “NOVEL HETEROARYL AND HETEROCYCLE COMPOUNDS, COMPOSITIONS AND METHODS THEREOF” (HUTCHISON MEDIPHARMA LIMITED, priority 2012, published 2015) can be followed below.

Common to all, as to assay type: biochemical
Experiment [1] deals with p110γ (Homo sapiens, UniProt P48736). Description: Transcreener KINASE Assay, kinase inhibition of p110γ. As to conditions: for PI3Kγ IH % @ 1 uM: 1 uM test compound; for IC50: read-out: PI3Kγ IC50. The gist of the method:
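Steps: enzyme reaction with compound, 80 min at room temperature; add ADP detection reagent, incubate 60 min at room temperature; read fluorescence polarization. Inhibition and IC50 values are derived from the ADP signal.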

In experiment [2] the target is p110β/p85α (Homo sapiens, UniProt P42338). Put plainly: Transcreener KINASE Assay, kinase inhibition of p110β/p85α. As to conditions: for PI3Kβ IH % @ 1 uM: 1 uM test compound; for IC50: read-out: PI3Kβ IC50. The gist of the method: (§1)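 ADP formation read by far-red competitive FP immunoassay (60 min RT detection step) after an 80 min RT kinase reaction; substrate added as a 30 uM PIP2/10 uM ATP solution (not final).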

The target in experiment [3] is p110δ/p85α (Homo sapiens, UniProt O00329). Description: Transcreener KINASE Assay, kinase inhibition of p110δ/p85α. As to conditions: for PI3Kδ IH % @ 1 uM: 1 uM test compound; for IC50: read-out: PI3Kδ IC50. The procedure, abridged:
as §1

Structures are written as SMILES.

p110δ/p85α, sequence (O00329 whole entry): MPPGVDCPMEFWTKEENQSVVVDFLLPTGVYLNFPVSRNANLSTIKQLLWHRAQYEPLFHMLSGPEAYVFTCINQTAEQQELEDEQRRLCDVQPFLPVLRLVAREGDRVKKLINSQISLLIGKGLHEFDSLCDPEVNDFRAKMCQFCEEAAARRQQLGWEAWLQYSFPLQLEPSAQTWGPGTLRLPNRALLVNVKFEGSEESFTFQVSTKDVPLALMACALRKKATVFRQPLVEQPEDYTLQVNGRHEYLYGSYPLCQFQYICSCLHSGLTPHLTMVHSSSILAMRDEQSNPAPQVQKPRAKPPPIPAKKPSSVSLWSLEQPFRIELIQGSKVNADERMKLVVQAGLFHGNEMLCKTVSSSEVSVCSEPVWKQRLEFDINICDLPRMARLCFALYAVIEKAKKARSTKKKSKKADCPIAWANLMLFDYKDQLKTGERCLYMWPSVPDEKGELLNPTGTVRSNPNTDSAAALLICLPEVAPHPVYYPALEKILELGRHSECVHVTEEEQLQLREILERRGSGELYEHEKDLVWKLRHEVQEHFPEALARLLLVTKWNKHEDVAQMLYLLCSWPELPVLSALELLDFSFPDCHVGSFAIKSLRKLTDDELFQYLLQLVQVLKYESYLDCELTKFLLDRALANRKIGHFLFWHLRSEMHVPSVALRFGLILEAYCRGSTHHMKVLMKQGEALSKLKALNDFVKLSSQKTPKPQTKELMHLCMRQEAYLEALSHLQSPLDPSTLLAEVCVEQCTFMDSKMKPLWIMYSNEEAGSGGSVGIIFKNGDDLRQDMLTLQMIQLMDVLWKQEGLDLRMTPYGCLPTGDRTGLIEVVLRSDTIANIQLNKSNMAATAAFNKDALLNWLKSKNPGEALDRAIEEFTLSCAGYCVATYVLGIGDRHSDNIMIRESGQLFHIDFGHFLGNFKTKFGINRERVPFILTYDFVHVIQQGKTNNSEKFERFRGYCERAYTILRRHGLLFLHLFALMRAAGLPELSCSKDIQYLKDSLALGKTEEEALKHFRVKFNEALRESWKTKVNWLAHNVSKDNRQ
p110δ/p85α, sequence (P27986 whole entry partner): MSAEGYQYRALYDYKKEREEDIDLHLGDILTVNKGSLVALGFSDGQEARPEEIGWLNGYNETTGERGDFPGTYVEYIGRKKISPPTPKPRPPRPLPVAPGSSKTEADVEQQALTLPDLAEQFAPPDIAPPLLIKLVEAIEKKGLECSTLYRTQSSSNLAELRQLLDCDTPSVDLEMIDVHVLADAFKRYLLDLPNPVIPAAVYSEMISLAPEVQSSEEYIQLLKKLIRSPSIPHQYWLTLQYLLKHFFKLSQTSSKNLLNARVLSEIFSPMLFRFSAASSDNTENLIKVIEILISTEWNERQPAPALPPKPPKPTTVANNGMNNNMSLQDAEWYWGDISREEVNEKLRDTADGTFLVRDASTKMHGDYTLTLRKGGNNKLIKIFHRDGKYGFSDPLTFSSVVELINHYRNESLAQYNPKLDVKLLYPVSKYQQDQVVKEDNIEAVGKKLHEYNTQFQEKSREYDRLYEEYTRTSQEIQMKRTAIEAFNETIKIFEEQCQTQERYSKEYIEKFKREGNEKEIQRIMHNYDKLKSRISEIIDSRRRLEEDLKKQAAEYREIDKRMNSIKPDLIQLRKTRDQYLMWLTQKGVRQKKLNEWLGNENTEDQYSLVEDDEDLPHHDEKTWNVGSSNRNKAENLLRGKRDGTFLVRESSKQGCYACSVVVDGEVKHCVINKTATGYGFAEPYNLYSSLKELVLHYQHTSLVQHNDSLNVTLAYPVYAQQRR
p110γ, sequence (P48736 whole entry): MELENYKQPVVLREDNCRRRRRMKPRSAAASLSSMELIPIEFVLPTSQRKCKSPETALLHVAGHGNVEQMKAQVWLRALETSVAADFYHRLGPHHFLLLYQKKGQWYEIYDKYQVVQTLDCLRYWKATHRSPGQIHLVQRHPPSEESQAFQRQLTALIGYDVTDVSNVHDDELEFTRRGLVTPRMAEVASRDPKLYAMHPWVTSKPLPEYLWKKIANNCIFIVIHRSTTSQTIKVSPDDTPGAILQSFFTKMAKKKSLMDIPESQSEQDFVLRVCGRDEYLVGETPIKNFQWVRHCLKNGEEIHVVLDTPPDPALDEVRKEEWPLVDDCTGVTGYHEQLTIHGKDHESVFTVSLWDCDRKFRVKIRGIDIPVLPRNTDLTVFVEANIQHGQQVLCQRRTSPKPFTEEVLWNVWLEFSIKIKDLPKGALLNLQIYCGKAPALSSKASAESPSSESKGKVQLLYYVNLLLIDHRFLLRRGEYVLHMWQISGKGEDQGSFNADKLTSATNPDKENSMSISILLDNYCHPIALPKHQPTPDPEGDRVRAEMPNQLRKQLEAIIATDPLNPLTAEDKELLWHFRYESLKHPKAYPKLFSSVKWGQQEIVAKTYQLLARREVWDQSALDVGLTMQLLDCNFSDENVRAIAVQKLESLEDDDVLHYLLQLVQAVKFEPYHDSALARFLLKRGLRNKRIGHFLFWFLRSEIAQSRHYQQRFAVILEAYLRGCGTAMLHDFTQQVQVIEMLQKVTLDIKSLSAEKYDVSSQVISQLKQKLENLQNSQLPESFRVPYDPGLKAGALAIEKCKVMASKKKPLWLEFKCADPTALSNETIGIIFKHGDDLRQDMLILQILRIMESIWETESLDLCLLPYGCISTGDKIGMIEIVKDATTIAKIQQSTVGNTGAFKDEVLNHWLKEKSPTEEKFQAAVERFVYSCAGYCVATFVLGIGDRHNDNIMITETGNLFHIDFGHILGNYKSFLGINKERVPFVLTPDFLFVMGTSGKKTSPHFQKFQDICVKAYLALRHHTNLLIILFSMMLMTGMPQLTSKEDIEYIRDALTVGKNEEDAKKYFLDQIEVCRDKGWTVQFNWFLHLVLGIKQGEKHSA
p110β/p85α, sequence (P42338 whole entry): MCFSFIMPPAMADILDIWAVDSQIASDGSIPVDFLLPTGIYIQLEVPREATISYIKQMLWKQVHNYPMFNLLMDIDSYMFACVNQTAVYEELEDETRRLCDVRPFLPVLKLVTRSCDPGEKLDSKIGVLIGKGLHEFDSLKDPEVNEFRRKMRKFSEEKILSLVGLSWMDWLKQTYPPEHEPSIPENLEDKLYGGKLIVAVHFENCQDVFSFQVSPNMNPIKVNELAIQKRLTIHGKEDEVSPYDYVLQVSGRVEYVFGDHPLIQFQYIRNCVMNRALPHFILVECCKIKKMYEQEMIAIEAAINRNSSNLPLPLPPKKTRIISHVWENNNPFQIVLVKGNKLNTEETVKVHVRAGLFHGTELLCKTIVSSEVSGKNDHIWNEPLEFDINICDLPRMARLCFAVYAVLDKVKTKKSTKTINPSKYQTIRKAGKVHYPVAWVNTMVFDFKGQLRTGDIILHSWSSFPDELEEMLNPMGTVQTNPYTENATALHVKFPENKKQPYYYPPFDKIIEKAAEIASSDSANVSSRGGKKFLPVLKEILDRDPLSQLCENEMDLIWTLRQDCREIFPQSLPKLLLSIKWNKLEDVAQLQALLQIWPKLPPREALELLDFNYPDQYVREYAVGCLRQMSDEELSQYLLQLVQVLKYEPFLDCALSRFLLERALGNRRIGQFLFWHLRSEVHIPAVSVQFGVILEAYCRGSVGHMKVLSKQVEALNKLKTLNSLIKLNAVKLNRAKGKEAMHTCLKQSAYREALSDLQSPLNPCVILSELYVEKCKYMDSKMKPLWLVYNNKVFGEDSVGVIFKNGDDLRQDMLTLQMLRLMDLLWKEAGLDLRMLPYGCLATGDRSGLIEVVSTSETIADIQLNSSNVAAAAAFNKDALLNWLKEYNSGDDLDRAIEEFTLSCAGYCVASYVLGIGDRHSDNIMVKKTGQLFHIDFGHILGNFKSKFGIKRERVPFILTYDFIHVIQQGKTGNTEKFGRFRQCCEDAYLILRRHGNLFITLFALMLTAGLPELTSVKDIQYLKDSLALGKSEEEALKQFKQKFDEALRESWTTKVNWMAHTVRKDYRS
p110β/p85α, sequence (P27986 2-724 partner): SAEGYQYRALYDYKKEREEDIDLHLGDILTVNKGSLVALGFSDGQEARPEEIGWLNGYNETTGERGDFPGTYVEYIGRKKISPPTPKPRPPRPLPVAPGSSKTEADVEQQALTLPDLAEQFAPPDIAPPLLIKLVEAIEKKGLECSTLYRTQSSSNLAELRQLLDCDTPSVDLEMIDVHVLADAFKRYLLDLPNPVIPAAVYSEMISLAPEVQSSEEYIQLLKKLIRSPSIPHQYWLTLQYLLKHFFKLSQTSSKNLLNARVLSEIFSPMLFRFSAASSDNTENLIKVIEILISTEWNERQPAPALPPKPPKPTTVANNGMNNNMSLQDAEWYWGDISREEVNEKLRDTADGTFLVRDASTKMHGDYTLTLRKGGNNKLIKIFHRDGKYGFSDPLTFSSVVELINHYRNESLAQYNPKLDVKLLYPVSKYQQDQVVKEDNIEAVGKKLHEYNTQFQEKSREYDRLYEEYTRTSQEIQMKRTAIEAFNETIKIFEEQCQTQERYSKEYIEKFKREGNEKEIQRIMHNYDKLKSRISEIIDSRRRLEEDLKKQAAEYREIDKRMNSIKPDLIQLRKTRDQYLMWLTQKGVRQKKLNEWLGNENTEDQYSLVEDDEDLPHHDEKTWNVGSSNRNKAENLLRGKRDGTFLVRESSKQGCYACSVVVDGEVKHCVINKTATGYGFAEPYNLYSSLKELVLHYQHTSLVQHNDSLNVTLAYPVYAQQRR

The term IC50 denotes the concentration at which inhibition is half-maximal. For `CCC(=O)c1cnc(N)nc1N1CC[C@H]1c1nn2ccc(Cl)c2c(=O)n1-c1ccccc1` [Compound 362], in experiment [1], the “PI3Kγ IH % @ 1 uM” value came to 97.4% and the IC50 is 0.04 µM. Also, the “PI3Kβ IH % @ 1 uM” value in experiment [2] is listed as 4.1%. In addition, the “PI3Kδ IH % @ 1 uM” value in experiment [3] was 56.0%.
In the case of `O=c1c2c(Cl)ccn2cc(C2CCCN2c2ncnc3[nH]cnc23)n1-c1ccccc1` (stereo not drawn) [Compound 363, 3-(1-(9H-purin-6-yl)pyrrolidin-2-yl)-8-chloro-2-phenylpyrrolo[1,2-a]pyrazin-1(2H)-one], in experiment [1], the “PI3Kγ IH % @ 1 uM” value amounted to 98.3% and the IC50 was determined as 0.027 µM. In experiment [2], the “PI3Kβ IH % @ 1 uM” value worked out at 68.3%. For the same molecule, in experiment [3], the “PI3Kδ IH % @ 1 uM” value turned out to be 97.5% and the IC50 turned out to be 0.006 µM.
For `N#Cc1c[nH]c2ncnc(N3CCCC3c3cn4ccc(Cl)c4c(=O)n3-c3ccccc3)c12` (stereo not drawn) [Compound 364], in experiment [1], the “PI3Kγ IH % @ 1 uM” value was >100% and the IC50 is 0.017 µM. In experiment [2], the “PI3Kβ IH % @ 1 uM” value was 88.2% and the concentration for half-maximal inhibition (IC50) came out at 0.056 µM. In experiment [3], the “PI3Kδ IH % @ 1 uM” value is reported as 99.1% and the IC50 turned out to be 0.002 µM.
Take `CS(=O)(=O)[C@H]1C[C@@H](c2nn3ccc(Cl)c3c(=O)n2-c2ccccc2)N(c2ncnc3[nH]cc(C#N)c23)C1` [Compound 365, 4-((2S,4S)-2-(5-chloro-4-oxo-3-phenyl-3,4-dihydropyrrolo[2,1-f][1,2,4]triazin-2-yl)-4-(methylsulfonyl)pyrrolidin-1-yl)-7H-pyrrolo[2,3-d]pyrimidine-5-carbonitrile]: in experiment [1], the “PI3Kγ IH % @ 1 uM” value is on record as 88.6% and the IC50 came to 0.025 µM. For the same molecule, in experiment [2], the “PI3Kβ IH % @ 1 uM” value worked out at 79.0% and the IC50 came to 0.275 µM. In addition, in experiment [3], the “PI3Kδ IH % @ 1 uM” value is given as 98.0% and the IC50 was 0.003 µM.
With `CS(=O)(=O)[C@H]1C[C@@H](c2nn3ccc(Cl)c3c(=O)n2-c2ccccc2)N(c2ncnc3[nH]cnc23)C1` [Compound 366], in experiment [1], the “PI3Kγ IH % @ 1 uM” value is 86.8% and the IC50 was found to be 0.089 µM. Moreover, in experiment [2], the “PI3Kβ IH % @ 1 uM” value turned out to be 74.4% and the IC50 came out at 0.3 µM. Further, in experiment [3], the “PI3Kδ IH % @ 1 uM” value was 97.1% and the IC50 is 0.011 µM.
Take `CC(=O)c1cnc(N)nc1N1CCC[C@H]1c1nn2ccc(Cl)c2c(=O)n1-c1ccccc1` [Compound 369, (S)-2-(1-(5-acetyl-2-aminopyrimidin-4-yl)pyrrolidin-2-yl)-5-chloro-3-phenylpyrrolo[2,1-f][1,2,4]triazin-4(3H)-one]: in experiment [1], the “PI3Kγ IH % @ 1 uM” value came to 90.4% and the 50% inhibitory concentration (IC50) was 0.003 µM. Moreover, in experiment [2], the “PI3Kβ IH % @ 1 uM” value amounted to 68.8% and the IC50 amounted to 0.242 µM. In addition, in experiment [3], the “PI3Kδ IH % @ 1 uM” value is given as >100% and the IC50 turned out to be 0.002 µM.
As to `N#Cc1c[nH]c2ncnc(N3CC[C@H]3c3nn4ccc(Cl)c4c(=O)n3CC3CC3)c12` [Compound 371, (S)-4-(2-(5-chloro-3-(cyclopropylmethyl)-4-oxo-3,4-dihydropyrrolo[2,1-f][1,2,4]triazin-2-yl)azetidin-1-yl)-7H-pyrrolo[2,3-d]pyrimidine-5-carbonitrile], in experiment [1], the “PI3Kγ IH % @ 1 uM” value is on record as 74.4% and the IC50 was found to be 0.317 µM. Besides, in experiment [2], the “PI3Kβ IH % @ 1 uM” value was 17.5%. In experiment [3], the “PI3Kδ IH % @ 1 uM” value was found to be 89.8% and the IC50 came out at 0.07 µM.
For `CS(=O)(=O)CCn1c([C@@H]2CCCN2c2ncnc3[nH]cnc23)nn2ccc(Cl)c2c1=O` [Compound 372], in that order: 87.7%, 0.297 µM, 42.6%, 84.8% and 0.1 µM.
For `O=c1c2c(Cl)ccn2nc([C@@H]2CCCN2c2ncnc3[nH]cnc23)n1C1CCC1` [Compound 374], the IC50 in experiment [1] was 0.155 µM; in experiment [2], 0.517 µM; in experiment [3], 0.004 µM. Also, the “PI3Kβ IH % @ 1 uM” value in experiment [2] came out at 58.7%.
Regarding `N#Cc1c[nH]c2ncnc(N3CC[C@H]3c3nn4ccc(Cl)c4c(=O)n3C3CCC3)c12` [Compound 375], in experiment [1], the “PI3Kγ IH % @ 1 uM” value is listed as 65.7%. For the same molecule, the “PI3Kβ IH % @ 1 uM” value in experiment [2] amounted to 32.9%. Further, in experiment [3], the “PI3Kδ IH % @ 1 uM” value is 92.6% and the concentration for half-maximal inhibition (IC50) was 0.043 µM.
Take `N#Cc1cnc(N)nc1N1CCC[C@H]1c1nn2ccc(Cl)c2c(=O)n1C1CCC1` [Compound 376]: in experiment [1], the “PI3Kγ IH % @ 1 uM” value was 93.2% and the IC50 was found to be 0.026 µM. The “PI3Kβ IH % @ 1 uM” value in experiment [2] worked out at 54.8%. In experiment [3], the “PI3Kδ IH % @ 1 uM” value is 99.1% and the IC50 came to 0.006 µM.
For `Cc1nc(N)nc(N2CC[C@H]2c2nn3ccc(Cl)c3c(=O)n2-c2ccccc2)c1Cl` [Compound 377, (S)-2-(1-(2-amino-5-chloro-6-methylpyrimidin-4-yl)azetidin-2-yl)-5-chloro-3-phenylpyrrolo[2,1-f][1,2,4]triazin-4(3H)-one], in that order: 96.3%, 0.045 µM, 39.8%, 98.0% and 0.034 µM.
For `COc1nc(N)nc(N2CC[C@H]2c2nn3ccc(Cl)c3c(=O)n2-c2ccccc2)c1C#N` [Compound 378, (S)-2-amino-4-(2-(5-chloro-4-oxo-3-phenyl-3,4-dihydropyrrolo[2,1-f][1,2,4]triazin-2-yl)azetidin-1-yl)-6-methoxypyrimidine-5-carbonitrile], in experiment [1], the “PI3Kγ IH % @ 1 uM” value was >100% and the IC50 is 0.179 µM. For the same molecule, the “PI3Kβ IH % @ 1 uM” value in experiment [2] was 34.5%. Further, in experiment [3], the “PI3Kδ IH % @ 1 uM” value came to 87.2% and the IC50 worked out at 0.22 µM.
`Nc1nc2c(c(N3CC[C@H]3c3nn4ccc(Cl)c4c(=O)n3-c3ccccn3)n1)C(=O)CCN2` [Compound 379]: the IC50 in experiment [1] is 0.035 µM; in experiment [3], 0.059 µM. Besides, the “PI3Kβ IH % @ 1 uM” value in experiment [2] is on record as 14.5%.
As for `N#Cc1c[nH]c2ncnc(N3CC(=O)C[C@H]3c3nn4ccc(Cl)c4c(=O)n3-c3ccccc3)c12` [Compound 380, (S)-4-(2-(5-chloro-4-oxo-3-phenyl-3,4-dihydropyrrolo[2,1-f][1,2,4]triazin-2-yl)-4-oxopyrrolidin-1-yl)-7H-pyrrolo[2,3-d]pyrimidine-5-carbonitrile], in experiment [1], the “PI3Kγ IH % @ 1 uM” value is reported as >100% and the IC50 was found to be 0.01 µM. In addition, in experiment [2], the “PI3Kβ IH % @ 1 uM” value was 87.8% and the IC50 is 0.065 µM. Further, in experiment [3], the “PI3Kδ IH % @ 1 uM” value was 98.0% and the IC50 was determined as 0.001 µM.
Regarding `O=C1C[C@@H](c2nn3ccc(Cl)c3c(=O)n2-c2ccccc2)N(c2ncnc3[nH]cnc23)C1` [Compound 381], the IC50 turned out to be 0.029 µM in experiment [1], 0.199 µM in experiment [2] and 0.003 µM in experiment [3].
Take `C[C@@H](Nc1nc(N)ncc1C#N)c1cc2ncc(Cl)n2c(=O)n1-c1ccccc1` [Compound 384, (R)-2-amino-4-((1-(3-chloro-5-oxo-6-phenyl-5,6-dihydroimidazo[1,2-c]pyrimidin-7-yl)ethyl)amino)pyrimidine-5-carbonitrile]: the “PI3Kγ IH % @ 1 uM” value in experiment [1] was 53.6%. Further, the “PI3Kβ IH % @ 1 uM” value in experiment [2] was 24.7%. For the same molecule, in experiment [3], the “PI3Kδ IH % @ 1 uM” value amounted to 91.0% and the IC50 was found to be 0.24 µM.
Turning to `C[S@+]([O-])c1c[nH]c2ncnc(N3CCC[C@H]3c3nn4ccc(Cl)c4c(=O)n3-c3ccccn3)c12` [Compound 388, 5-chloro-2-((S)-1-(5-((S)-methylsulfinyl)-7H-pyrrolo[2,3-d]pyrimidin-4-yl)pyrrolidin-2-yl)-3-(pyridin-2-yl)pyrrolo[2,1-f][1,2,4]triazin-4(3H)-one], in experiment [1], the “PI3Kγ IH % @ 1 uM” value is given as 80.7% and the IC50 was 0.173 µM. Further, in experiment [2], the “PI3Kβ IH % @ 1 uM” value is on record as 69.3%. In addition, in experiment [3], the “PI3Kδ IH % @ 1 uM” value was determined as 96.2% and the IC50 came to 0.002 µM.
The corresponding values for `C[S@@+]([O-])c1c[nH]c2ncnc(N3CC[C@H]3c3nn4ccc(Cl)c4c(=O)n3-c3ccccn3)c12` [Compound 391, 5-chloro-2-((S)-1-(5-((R)-methylsulfinyl)-7H-pyrrolo[2,3-d]pyrimidin-4-yl)azetidin-2-yl)-3-(pyridin-2-yl)pyrrolo[2,1-f][1,2,4]triazin-4(3H)-one] are 90.5%, 0.129 µM, 0.1%, 91.4% and 0.185 µM.
For `C[S@+]([O-])c1c[nH]c2ncnc(N3C[C@@H](F)C[C@H]3c3nn4ccc(Cl)c4c(=O)n3-c3cccc(F)c3)c12` [Compound 392, 5-chloro-2-((2S,4S)-4-fluoro-1-(5-((S)-methylsulfinyl)-7H-pyrrolo[2,3-d]pyrimidin-4-yl)pyrrolidin-2-yl)-3-(3-fluorophenyl)pyrrolo[2,1-f][1,2,4]triazin-4(3H)-one], in that order: 89.1%, 0.062 µM, 67.2%, 95.9% and 0.011 µM.
Take `C[S@@+]([O-])c1c[nH]c2ncnc(N3C[C@@H](F)C[C@H]3c3nn4ccc(Cl)c4c(=O)n3-c3cccc(F)c3)c12` [Compound 393, 5-chloro-2-((2S,4S)-4-fluoro-1-(5-((R)-methylsulfinyl)-7H-pyrrolo[2,3-d]pyrimidin-4-yl)pyrrolidin-2-yl)-3-(3-fluorophenyl)pyrrolo[2,1-f][1,2,4]triazin-4(3H)-one]: in experiment [1], the “PI3Kγ IH % @ 1 uM” value came to 90.7% and the IC50 stood at 0.009 µM. The “PI3Kβ IH % @ 1 uM” value in experiment [2] is on record as 35.2%. Besides, in experiment [3], the “PI3Kδ IH % @ 1 uM” value worked out at 94.7% and the IC50 is 0.009 µM.
